Test results reported in patent publication US9227991B2, “Anti-tumor bivalent platinum complex and preparation method for complex and ligand of complex” (SOUTHEAST UNIVERSITY, priority 2012, dated 2016).

Experiments:
[1] = system: human lung cancer cell A549; assay: MTT cytotoxicity test, A549; assay type: cell-based; details: 48 hours
Procedure: (§1) This test example adopts MTT method to conduct cytotoxicity test on the complexes of the present invention and the common clinical anti-cancer platinum drugs.
(§2) Select cells in logarithmic phase, count them and inoculate them in a 96-well culture plate, at about 8000-10000 cells/well. Cultivate the cells overnight, administrate drug after the cells are attached to the wall, and set a drug group, a positive control group and a negative control group. The complex to be tested is prepared into a stock solution by using 5% glucose aqueous solution. Before use, it is diluted with cell culture medium into solutions at a series of concentrations. Each concentration has 3 duplicate wells. Cultivate for 48 hours after administration of drug, add 20 μL of 5 mg/mL MTT, incubate at 37° C. for 4 hours, remove the supernate and add 150 μL of DMSO-dissolved formazan. Determine OD value of every well at 490 nm wavelength by microplate reader, calculate inhibition rate, draw a concentration-inhibition rate curve and calculate value IC50.

[2] = system: human umbilical vein endothelial cell HUVEC; assay: MTT cytotoxicity test, HUVEC; assay type: cell-based; details: 48 hours
Procedure: as §1, §2

[3] = system: human breast cancer cell MCF-7; assay: MTT cytotoxicity test, MCF-7; assay type: cell-based; details: MCF-7, MTT, 48 hours
Procedure: as §1, §2

[4] = system: human breast cancer drug resistant cell MCF-7; assay: MTT cytotoxicity test, MCF-7 drug resistant; assay type: cell-based; details: 48 hours
Procedure: as §1, §2

[5] = system: human breast cancer cell MDA-MB-231; assay: MTT cytotoxicity test, MDA-MB-231; assay type: cell-based; details: MDA-MB-231, MTT, 48 hours
Procedure: as §1, §2

[6] = system: human gastric adenocarcinoma cell BGC823; assay: MTT cytotoxicity test, BGC823; assay type: cell-based; details: 48 hours
Procedure: as §1, §2

[7] = system: human hepatoma carcinoma cell HepG-2; assay: MTT cytotoxicity test, HepG2; assay type: cell-based; details: 48 hours
Procedure: as §1, §2

[8] = system: human erythroleukemia cell K562; assay: MTT cytotoxicity test, K562; assay type: cell-based; details: 48 hours
Procedure: as §1, §2

[9] = system: human acute promyelocytic leukemia cell NB4; assay: MTT cytotoxicity test, NB4; assay type: cell-based; details: 48 hours
Procedure: as §1, §2

[10] = system: human large cell lung cancer cell NCI-H460; assay: MTT cytotoxicity test, NCI-H460; assay type: cell-based; details: 48 hours
Procedure: as §1, §2

[11] = system: human hepatoma carcinoma cell SMMC-7721; assay: MTT cytotoxicity test, SMMC-7721; assay type: cell-based; details: SMMC-7721, MTT, 48 hours
Procedure: as §1, §2

mouse = details: cited from earlier work
[12] = system: mouse-transplanted tumor S180 sarcoma; assay: Mouse-transplanted tumor animal model, S180; assay type: in vivo, ICR mice; details: S180 mice; for Number of Animal End of the test: 10 at beginning
Procedure: (§3) This test example adopts mouse-transplanted tumor animal model method to test the inhibitory effects of the complexes provided by the present invention on animal-transplanted tumor S180 sarcoma and Heps tumor.
Get ICR mice and inoculate solid tumor according to the research method of transplanted tumor. […] Administrate drug by intravenous injection for the first time 24 hours (d1) after the inoculation, administrate drug once every other day for a total of 4 times, at a dose of 0.4 ml/20 g each time. Kill and weigh the tumor-bearing mice days (d10) after the inoculation, separate and weigh the tumor mass, and conduct statistical treatment of all the obtained data (t-test). The inhibitory effect of the complexes on mouse-transplanted tumors S180 and Heps is shown in Table 2 and Table 3 respectively.

[13] = system: mouse-transplanted tumor Heps; assay: Mouse-transplanted tumor animal model, Heps; assay type: in vivo, ICR mice; details: Heps mice; for Number of Animal End of the test: 8 at beginning
Procedure: as §3
Get ICR mice and inoculate solid tumor according to the research method of transplanted tumor. Weigh the mice 24 hours after the inoculation and randomly divide them into 7 groups, 8 mice per drug group. Administrate drug by intravenous injection for the first time 24 hours (d1) after the inoculation, administrate drug once every other day for a total of 4 times, at a dose of 0.4 ml/20 g each time. Kill and weigh the tumor-bearing mice days (d10) after the inoculation, separate and weigh the tumor mass, and conduct statistical treatment of all the obtained data (t-test). The inhibitory effect of the complexes on mouse-transplanted tumors S180 and Heps is shown in Table 2 and Table 3 respectively.

[14] = Acute toxicity test in mice (iv), Bliss method; details: both, Kunming, mouse, in vivo, iv
Procedure: (§4) The toxicity of the two platinum complexes provided by the present invention was preliminarily researched.
(§5) Select 50 Kunming mice of clean grade, 25 males and 25 females, with body weight 18˜22 g, randomly divide them into 5 groups, 10 mice in each group, and fast for 12 hours. […] The acceptance capacity of an animal is 0.4 mL/20 g. Observe continuously for 14 days after administration, and record toxic symptoms and death of mice.

Solubility in water = assay type: physicochemical
Procedure: As for the platinum complex prepared by the method of the present invention, the molecular structures of the compounds are determined by H NMR, HR ESI-MS and elemental analysis and their solubility in water was determined.

Kunming mice = assay: Acute toxicity test in mice (iv), Bliss method; details: mice, iv via caudal vein, 14 days observation, Bliss method
Procedure: as §4, §5

[15] = 25 mg/kg iv every other day x4, X ± SD

| Structure (SMILES) | IC50 [1] [µM] | IC50 [2] [µM] | IC50 [3] [µM] | IC50 [4] [µM] | IC50 [5] [µM] | IC50 [6] [µM] | IC50 [7] [µM] | IC50 [8] [µM] | IC50 [9] [µM] | IC50 [10] [µM] | IC50 [11] [µM] | Body weight (g) After administration [13, 15] [g] | Number of Animal End of the test ([13]; 25 mg/kg iv every other day x4) | Number of Animal End of the test ([13]; 50 mg/kg iv every other day x4) | other results |
| --- | --- | --- | --- | --- | --- | --- | --- | --- | --- | --- | --- | --- | --- | --- | --- |
| N.N.O=C([O-])C1(C(=O)[O-])CCC1.[Pt+2] [Carboplatin, carboplatin] | 137 | 102 | 109 | 457 | 93.3 | 43.2 | 99.1 | 118 | 12.6 | 30.6 | 52.7 |  |  |  | mouse LD50 values in literature (mouse): 139.00 mg/kg |
| N.N.[Cl][Pt][Cl] [Cis-platinum, cis-platinum] | 16.6 | 11.2 | 32.9 | 32.9 | 18.3 | 5.44 | 2.11 | 10.9 |  |  |  |  |  |  |  |
| [NH2][Pt]1([NH2])[O]C(=O)C2(CC(=O)C2)C(=O)[O]1 [GSH-5, cis-[3-ketone cyclobutane-1,1-dicarboxylic acid radical.diamineplatinum (II)]] |  |  |  |  |  |  |  |  |  |  |  | 22.13 ± 3.52 | 8 | 2 | Body weight (g) After administration ([12]; 15 mg/kg iv every other day x4, X ± SD): 22.50 ± 1.91 g; Number of Animal End of the test ([12]; 15 mg/kg iv every other day x4): 10; Body weight (g) After administration ([12]; 30 mg/kg iv every other day x4, X ± SD): 18.13 ± 1.76 g; Number of Animal End of the test ([12]; 30 mg/kg iv every other day x4): 8; Body weight (g) After administration ([13]; 50 mg/kg iv every other day x4, X ± SD): 13.50 ± 0.50 g; LD50 at 14 days [14]: 150 mg/kg; solubility (Solubility in water): 16 mg/mL |
| N[C@@H]1CCCC[C@H]1N.O=C1CC2(C1)C(=O)[O][Pt][O]C2=O [GSH-6, cis-[3-ketone-1,1-cyclobutane-dicarboxylic acid radical.trans-1,2-cyclohexanediamineplatinum(II)]] | 47.5 | 68.9 | 34.2 | 1350 | 36.3 | 8.9 | 31.6 | 36 | 3.1 | 11.9 | 216 | 18.10 ± 1.10 | 8 | 0 | Body weight (g) After administration ([12]; 10 mg/kg iv every other day x4, X ± SD): 20.60 ± 2.50 g; Tumor inhibition rate (%) ([12]; 10 mg/kg iv every other day x4, d10): 33.13%; Tumor weight ([12]; 10 mg/kg iv every other day x4, d10, X ± SD): 0.65 ± 0.14 g; Number of Animal End of the test ([12]; 10 mg/kg iv every other day x4): 10; Body weight (g) After administration ([12]; 20 mg/kg iv every other day x4, X ± SD): 18.60 ± 2.24 g; Tumor inhibition rate (%) ([12]; 20 mg/kg iv every other day x4, d10): 46.61%; Tumor weight ([12]; 20 mg/kg iv every other day x4, d10, X ± SD): 0.52 ± 0.13 g; Number of Animal End of the test ([12]; 20 mg/kg iv every other day x4): 10; Tumor inhibition rate (%) ([13]; 25 mg/kg iv every other day x4, d10): 35.44%; Tumor weight ([13]; 25 mg/kg iv every other day x4, d10, X ± SD): 0.84 ± 0.17 g; LD50 (acute toxicity test) (Kunming mice): 100 mg/kg |
| O=C1[O][Pt]2([NH][C@@H]3CCCC[C@H]3[NH]2)[O]C1=O [Oxaliplatin, oxaliplatin] | 70.3 | 16.3 | 25.7 | 351 | 29.1 | 7.92 | 27.2 | 23.6 |  | 23.1 | 32.3 |  |  |  |  |
